Data taken from US20060177430A1, “Treatment of ocular disorders with ophthalmic formulations containing methylsulfonylmethane as a transport enhancer” (Chakshu Research Inc, priority 2002, published 2006).
Values joined by “and” are separate entries in the source; they are usually repeats but may differ in a detail not shown here. Identical values can stand only once.

Key:
[1] = in vivo
Method: The ocular pharmacokinetic behavior of EDTA, when administered as a component of Formulation 1, was evaluated in rabbits over a period of five days. Two healthy male rabbits, each approximately 2.5 to 3 kg in body weight, were used for the study.
On day 1 of the study, one drop of Formulation 1 was topically instilled in each eye of both rabbits (four eyes total). No additional eye drops were administered during the course of the study. Samples of aqueous humor were extracted at 15 min, 30 min, 1 hr, 4 hrs, 3 days, and 5 days following administration (as indicated in the following table). Vitreous humor was extracted at 5 days following administration from all four eyes. The concentration of EDTA was measured in all the samples of aqueous humor and vitreous humor by HPLC analysis.
In the following in vivo experiment, the ocular pharmacokinetic behavior of EDTA, when administered with MSM as permeation enhancing penetrating agent, was evaluated in rabbits over a period of five days. Two healthy male rabbits, each approximately 2.5 to 3 Kg in body weight, were used for the study.
An eye drop formulation of the invention, was prepared as follows: High purity de-ionized (DI) water (500 ml) was filtered via a 0.2 micron filter. MSM (27 g), EDTA (13 g), and L-carnosine (5 g) were added to the filtered DI water, and mixed until visual transparency was achieved, indicating dissolution. The mixture was poured into 10 ml bottles each having a dropper cap. On a weight percent basis, the eye drops had the following composition: […]

[2] = in the absence of MSM
[3] = EDTA pharmacokinetic study: 14C-EDTA in structures of the rat eye (Example 25)
Method: Objectives. Determine the amount of C-14 labeled EDTA that penetrates into the various structures of the rat eye (cornea, aqueous humor, lens, vitreous, and retina), using eye drops that contain MSM. Carry out a comparison of two different eye drop formulations that differed in their EDTA concentration.
8 μl of Eye Drop 1 was applied to the rats' eyes. […] The eyeballs were quickly washed 6 times in 5 ml of saline each time. Aqueous humor was aspirated from both eyes and dispensed in 50 μl of PBS. Cornea, lens, vitreous and retina from each eye were separated and placed in Eppendorf tubes containing H2O and 10N NaOH in the following ratio:
8 μl of Eye Drop 2 was applied to the rat eye. After 0.5, 2 and 4 hours, the rats were sacrificed and the experiment conducted in the same way as for Eye Drop 1.

[4] = not told
Text: (§1) The same study design and experimental setup was used as described in the above experiments.

[5] = test system: rat lens organ culture; assay: Oxidation-induced toxicity in rat lens organ culture (Example 26); assay type: cell-based; details: 7 days
Text: Materials. […] All cell culture medium components were from Invitrogen. Animals. […] Lens Culture. The rat lenses were dissected and washed with 1% penicillin/streptomycin in sterile PBS. […] The lenses were visualized under a Nikon Eclipse 200 and photographs were taken using a Multidimensional Imaging System. [table] Experimental Procedure. 1. Sacrificed seven rats, removed the eyeballs as soon as possible, and put them into a tube containing PBS with 0.1% gentamicin. 2. Dissected the lenses immediately and washed with PBS. 3. […] Each treatment was performed in 2 wells. Final concentrations for the six treatments were as follows: […] After 7 days of lens culture, took photographs and determined level of light transparency through the lenses.

[6] = test system: Human lens epithelial cells (HLEC); assay: Cell viability following oxidation-induced toxicity in human lens epithelial cells (Example 27); assay type: cell-based; details: oxidants, 16 hrs; 4 mM MSM, 0.5 mM EDTA
Method: Materials. […] All cell culture medium components were from Invitrogen. Cell Culture and Treatment. […] Cell Viability. Cell survival was determined by Trypan Blue staining and counting with a hemocytometer. Dead cells stain blue, while live cells exclude Trypan Blue. Cell viability is represented as the number of live cells divided by the total number of cells, expressed as a percentage. [[[…]]] Experimental Procedure. 1. Seeded 0.5×10^5/ml of HLEC (Passage 5) into three 12-well plates, incubated at 37° C. for overnight. 2. […] Added the oxidation reagents and MSM and/or EDTA to the proper wells. […] Ferrous ammonium sulfate (FAS) 10 μM, ADP 100 μM, H2O2 100 μM • Fenton': FAS 10 μM, ADP 100 μM, H2O2 100 μM • Ferric Chloride: […]

[7] = @ 79° F.; cited from earlier work
[8] = 54 mg MSM/ml
Text: as §1

[9] = 5 days after one drop of Formulation 1, per rabbit eye

O=C(O)CN(CCN(CC(=O)O)CC(=O)O)CC(=O)O [EDTA, ethylenediamine tetraacetic acid]
Concentration of EDTA, aqueous humor ([1]; 3 days after one drop of Formulation 1, per rabbit eye): 0.4 micrograms per milliliter and 0.7 micrograms per milliliter | Concentration of EDTA, aqueous humor [1, 9]: 0.5 micrograms per milliliter and 0.4 micrograms per milliliter | Concentration of EDTA, vitreous humor [1, 9]: 0.5 micrograms per milliliter and 0.7 micrograms per milliliter | concentration at 15 min ([1]; male, rabbit, aqueous humor, topical, 1 drop of Formulation 1 per eye, Concentration of EDTA, aqueous humor, 15 min after one drop of Formulation 1, per rabbit eye, HPLC): 1300 ng/mL | concentration at 30 min ([1]; male, rabbit, aqueous humor, topical, 1 drop of Formulation 1 per eye, Concentration of EDTA, aqueous humor, 30 min after one drop of Formulation 1, per rabbit eye): 10700 ng/mL | concentration at 1 hr ([1]; male, rabbit, aqueous humor, topical, 1 drop of Formulation 1 per eye, Concentration of EDTA, aqueous humor, 1 hr after one drop of Formulation 1, per rabbit eye): 5300 ng/mL | concentration at 4 hrs ([1]; male, rabbit, aqueous humor, topical, 1 drop of Formulation 1 per eye, Concentration of EDTA, aqueous humor, 4 hrs after one drop of Formulation 1, per rabbit eye): 900 ng/mL | concentration at 3 days ([1]; male, rabbit, aqueous humor, topical, 1 drop of Formulation 1 per eye, Concentration of EDTA, aqueous humor, 3 days after one drop of Formulation 1, per rabbit eye): 500 ng/mL | concentration at 5 days ([1]; male, rabbit, aqueous humor, topical, 1 drop of Formulation 1 per eye, Concentration of EDTA, aqueous humor, 5 days after one drop of Formulation 1, per rabbit eye): 600 ng/mL | concentration at 30 min ([1]; male, rabbit, aqueous humor, topical, 1 drop of Formulation 1 per eye, concentration of EDTA in aqueous humor, 30 minutes following administration of Formulation 1): 10700 ng/mL | concentration at 5 days ([1]; male, rabbit, vitreous humor, topical, 1 drop of Formulation 1 per eye, Concentration of EDTA, vitreous humor, 5 days after one drop of Formulation 1, per rabbit eye): 600 ng/mL | amount present in the aqueous humor [2]: very little | dose dependency of nanograms of EDTA in eye structures ([3]; Eye Drop 1 (60.5 mM EDTA) versus Eye Drop 2 (12.5 mM EDTA)): Dose dependency was observed, particularly in the aqueous humor, the cornea, and the lens | distribution among eye structures ([3]; Eye Drop 1, two-hour time point): The majority of the EDTA was found in the aqueous humor

NCCC(=O)N[C@@H](Cc1cnc[nH]1)C(=O)O [L-carnosine]
increase of permeation over control [4]: about 2.5%

CS(C)(=O)=O [MSM, methylsulfonylmethane]
Light transmission through the lens, of control ([5]; 1 mM ascorbate + 100 μM hydrogen peroxide, oxidant alone 32%, 4 mM MSM, 0.5 mM EDTA): 57% | Light transmission through the lens, of untreated control ([5]; 50 mM glucose, glucose alone 45%, 4 mM MSM, 0.5 mM EDTA): 68% | lens opacification in photographs of the lens culture ([5]; glucose or ascorbate plus hydrogen peroxide): mitigated lens opacification by both oxidants | percent cell viability (Trypan Blue) [6]: increased the percent cell viability for all oxidants | water solubility [7]: 34 % w/v

N[C@@H](CCC(=O)N[C@@H](CS)C(=O)NCC(=O)O)C(=O)O [glutathione]
effect of MSM on the diffusion rate [8]: no effect
